In experiment [1] the test system is adult sensory neurons. Nature of the experiment: Small molecule screen for axon regeneration and outgrowth in adult neural cell suspensions (Example 3). Format: cell-based, Sprague-Dawley rat. Conditions: 10 μM drug, 24 hrs incubation; average of 4 fields from 3 wells (12 fields) ± SE; 30×30 μm grid. The source says: A single adult male Sprague-Dawley rat weighing between 250 g-450 g was anesthetized by isofluorane induction. After no response to external stimuli, the rat was sacrificed by guillotine.
Unnecessary satellite tissues and nerve fibers were cleaned from the DRG tissue immersed in the cell suspension medium at ambient room temperature using # 5 student forceps and a #10 scalpel blade under a Fisher Scientific Stereomaster® dissecting microscope (Stereomaster is a registered trademark of Fischer Scientific Co., LLC., Hampton, N.H., USA). The cleaned DRG tissue was placed into fresh cell suspension medium.
The cleaned DRG tissue was digested enzymatically to remove collagen fibers and proteinaceous material thereby releasing single DRG cells, as follows. […] The DRG tissue was then transferred to a fresh collagenase enzyme-cell suspension medium and incubated for another hour, after which the collagenase-digested DRG tissue was aspirated and washed twice in cell suspension medium pre-warmed to ambient room temperature.
The washed collagenase-digested DRG tissue was then placed into cell suspension medium to which a trypsin enzyme preparation (Prod. # T5266 from porcine pancreas; supplied by Sigma-Aldrich) was added to a final concentration of 0.25%, and then incubated for twenty minutes at 37° C. in a sterile atmosphere comprising 5% CO2. The trypsin action was stopped by the addition of 1 mL of pre-warmed HyClone fetal bovine serum […] (FBS Prod. # SH30070.01 supplied by Thermo Fisher Scientific, Napean, ON, Canada). The enzyme-digested DRG tissue was then washed twice with cell suspension medium supplemented with 10% FBS to ensure deactivation of trypsin activity. The enzyme-digested DRG tissue was then washed twice with cell suspension medium to remove the FBS.
The enzyme-digested DRG tissue was taken up from the cell suspension medium into a borosilicate glass Pasteur pipette (note that a borosilicate glass pipette was used to minimize DRG tissue sticking to the pipette) and was triturated about 15 times to disrupt the DRG tissue and to disassociate individual cells, after which the large tissue fragments were allowed to settle out of the suspension.
The supernatent containing satellite cells and debris was aspirated and discarded. […] The Ham's F12 medium containing 15% BSA served as a purification column for the supernatent and produced several upper layers containing dead cells, cellular debris and satellite layers over pellet of live neural cells. The upper layers were removed by aspiration with a Pasteur pipette. The cell pellet was resuspended in 1 mL of plating medium which comprised the cell suspension medium amended with 15 mM D-glucose (for a final concentation of 25 mM glucose). The 1 mL of suspended neural cells was then added to 19 mL of plating medium to make a 20-mL suspension of live neural cells.
600 μL of the neural cell suspension was removed to a 1.5 mL Eppendorf centrifuge tube.
The 600-μL reserved neural cell suspension was separated into three 200-μL aliquots which were then each plated into a well. The growth-factor-amended neural cell suspension was then plated into the remaining 93 wells in 200-μL aliquots. DMSO (Cat. # D2650 supplied by Sigma-Aldrich) was added to the three control wells (i.e., containing neural cell suspension that was not amended with growth factor supplements). The 96-well plate was then stored in a direct-heat humidified incubator (Form a CO2 Incubator supplied by Thermo Fisher Scientific) at 37° C. in a sterile atmosphere comprising 5% CO2.
(§1) High resolution and high pixel density digitized images of neurons were acquired. […] Total axon outgrowth was determined by placing a 30×30 μm grid over the image and counting the total number of intercepts with the grid line. Total neurite lengths were determined by the summing the lengths of all the neurites produced by an individual neuron.

Experiment [2] relates to adult neural cells isolated from three-month-old STZ rats. Briefly: Axon outgrowth from adult neural cells of streptozotocin diabetic rats (Example 4). The experiment is classed as cell-based, Sprague-Dawley rat (STZ diabetic). As to conditions: 24-h incubation, 25 mM glucose. How it is done: as §1
In experiment [3] the test system is adult neurals cells isolated from four-month old ZDF rats. Briefly: Axon outgrowth from adult neural cells of Zucker diabetic fatty rats (Example 5). The experiment is classed as cell-based, Zucker diabetic fatty rat. Conditions: 24-h incubation, 25 mM glucose. As for the experimental part: as §1
[4] abbreviates: at the dosages tested (0.1, 1.0, 10.0 μM).

Structures can show the parent of a compound that is named as a salt.

As for `CN1CCN(CC(=O)N2c3ccccc3C(=O)Nc3cccnc32)CC1` [Pirenzepine HCl], in experiment [1], the “Ave number of intersects per cell per well” value (from here on “Ave number … per well”) was 4.4 ± 0.7. For the same molecule, the “axon outgrowth relative to the controls” value in experiment [2] (setting [4]) and in experiment [3] (setting [4]) was “did not have significant effects” in each case.

`CC(=O)O[C@]1(C(C)=O)CC[C@H]2[C@@H]3C=C(C)C4=CC(=O)CC[C@]4(C)[C@H]3CC[C@@]21C` [Megastrol acetate]: the “Ave number … per well” value in experiment [1] was determined as 9.2 ± 1.8.

As for `COc1c2occc2cc2ccc(=O)oc12` [Methoxsalen], the “Ave number … per well” value in experiment [1] came to 9.7 ± 2.0.

In the case of `NCC(CC(=O)O)c1ccc(Cl)cc1` (stereo not shown) [Baclofen], the “Ave number … per well” value in experiment [1] came to 9.8 ± 2.2.

In the case of `CC(C(=O)O)c1cccc(C(=O)c2ccccc2)c1` (stereo not shown) [Ketoprofen], the “Ave number … per well” value in experiment [1] is 7.9 ± 0.7.

`CC(C)(Oc1ccc(CCNC(=O)c2ccc(Cl)cc2)cc1)C(=O)O` [Bezafibrate]: the “Ave number … per well” value in experiment [1] was found to be 6.9 ± 1.7.

As for `COc1ccccc1OCC(O)CO` (stereo not shown) [Guaifenesin], in experiment [1], the “Ave number … per well” value came to 5.0 ± 0.9. Further, the “axon outgrowth relative to the controls” value in experiment [2] (10.0 μM) and in experiment [3] (0.1 μM) was “significantly increased” throughout.

Take `CCC1(c2ccc(N)cc2)CCC(=O)NC1=O` (stereo not shown) [Aminoglutethimide]: the “Ave number … per well” value in experiment [1] worked out at 5.9 ± 2.0.

In the case of `O=S(=O)(O)CCS` [Mesna], the “Ave number … per well” value in experiment [1] is recorded as 8.8 ± 3.9.

Take `CCCCOc1cc(C(=O)NCCN(CC)CC)c2ccccc2n1` [Dibucaine hydrochloride]: in experiment [1], the “Ave number … per well” value worked out at 2.0 ± 0.3.

Regarding `CCN(CC)C(C)CN1c2ccccc2Sc2ccccc21` (stereo not shown) [Ethopropazine HCL], the “Ave number … per well” value in experiment [1] is listed as 4.4 ± 1.4. For the same molecule, the “axon outgrowth relative to the controls” value in experiment [3] (10.0 μM) is “significantly increased”.

In the case of `Nc1ccc(/N=N/c2ccccc2)c(N)n1` [Phenazopyridine HCl], the “Ave number … per well” value in experiment [1] was determined as 10.2 ± 0.2.

Turning to `C=N[C@@H](C(=O)N[C@@H]1C(=O)N2[C@@H]1SC(C)(C)[C@@H]2C(=O)O)c1ccccc1` [Metampicillin sodium], in experiment [1], the “Ave number … per well” value is 6.7 ± 1.3.

With Aminopentanoic acid, in experiment [2] (setting [4]), the “axon outgrowth relative to the controls” value is listed as “did not have significant effects”.

For Hydrocortizone, the “Ave number … per well” value in experiment [1] was found to be 10.7 ± 1.7.

With Aminopentanoic acid HCl, the “Ave number … per well” value in experiment [1] came out at 4.3 ± 0.4.

As for `CN[C@@H]1[C@H](O[C@H]2[C@H](O[C@H]3[C@H](O)[C@@H](O)[C@H](NC(=N)N)[C@@H](O)[C@@H]3NC(=N)N)O[C@@H](C)[C@]2(O)CO)O[C@@H](CO)[C@H](O)[C@H]1O` [Dihydrostreptomycin HCl], the “Ave number … per well” value in experiment [1] amounted to 2.4 ± 0.6.

Regarding `CC(C)NCC(O)COc1ccc(CC(N)=O)cc1` (stereo not shown) [Atenolol], in experiment [1], the “Ave number … per well” value amounted to 6.2 ± 0.2.

Consider `CCCC(CCC)C(=O)[O-].[Na+]` [Sodium valproate], for which, in experiment [1], the “Ave number … per well” value was 8.5 ± 1.8.

Turning to `Cn1c(=O)c2c(ncn2C)n(C)c1=O` [Caffeine], in experiment [1], the “Ave number … per well” value was found to be 3.25 ± 1.6.

The values are drawn from US20080255062A1, “AXON REGENERATION FROM ADULT SENSORY NEURONS” (UNIVERSITY OF MANITOBA, priority 2007, published 2008).
